Test results as given in patent US12152024B2, “Pesticidally active heterocyclic derivatives with sulphur and hydroxylamine substituents” (SYNGENTA PARTICIPATIONS AG, priority 2016, dated 2024).

How the values were obtained:
[1] = test system: Diabrotica balteata (corn root worm); assay: Activity against Diabrotica balteata (corn root worm), maize sprouts sprayed; type: in vivo; settings: for percent effect (mortality or growth inhibition) at 200 ppm: 96 h, application rate 200 ppm, L2 larvae, 4 days after infestation, read-out: effect in at least one of the two categories (mortality or growth inhibition)
Method: Maize sprouts placed onto an agar layer in 24-well microtiter plates were treated with aqueous test solutions prepared from 10′000 ppm DMSO stock solutions by spraying. After drying, the plates were infested with L2 larvae (6 to 10 per well). The samples were assessed for mortality and growth inhibition in comparison to untreated samples 4 days after infestation.

[2] = test system: Euschistus heros (Neotropical Brown Stink Bug); assay: Activity against Euschistus heros (neotropical brown stink bug), soybean leaves sprayed; type: in vivo; settings: 120 h, application rate 200 ppm, N2 nymphs, 5 days after infestation, read-out: effect in at least one of the two categories (mortality or growth inhibition)
Method: Soybean leaves on agar in 24-well microtiter plates were sprayed with aqueous test solutions prepared from 10′000 ppm DMSO stock solutions. After drying the leaves were infested with N2 nymphs. The samples were assessed for mortality and growth inhibition in comparison to untreated samples 5 days after infestation.

[3] = test system: Myzus persicae (Green Peach Aphid); assay: Activity against Myzus persicae (green peach aphid): feeding/contact activity; type: in vivo; settings: for mortality at 200 ppm: Myzus persicae, 144 h, application rate 200 ppm, feeding/contact, mixed ages, 6 days after infestation
Method: Sunflower leaf discs were placed onto agar in a 24-well microtiter plate and sprayed with aqueous test solutions prepared from 10′000 ppm DMSO stock solutions. After drying, the leaf discs were infested with an aphid population of mixed ages. The samples were assessed for mortality 6 days after infestation.

[4] = test system: Myzus persicae (Green Peach Aphid); assay: Activity against Myzus persicae (green peach aphid): systemic activity; type: in vivo; settings: for mortality at 24 ppm: Myzus persicae, 144 h, test rate 24 ppm, systemic, pea seedling roots in test solution, 6 days
Method: Roots of pea seedlings infested with an aphid population of mixed ages were placed directly into aqueous test solutions prepared from 10′000 DMSO stock solutions. The samples were assessed for mortality 6 days after placing seedlings into test solutions.

[5] = test system: Plutella xylostella (Diamond Back Moth); assay: Activity against Plutella xylostella (diamond back moth), artificial diet; type: in vivo; settings: for percent effect (mortality or growth inhibition) at 200 ppm: 120 h, application rate 200 ppm, L2 larvae, 5 days after infestation, read-out: effect in at least one of the two categories (mortality or growth inhibition)
Method: 24-well microtiter plates with artificial diet were treated with aqueous test solutions prepared from 10′000 ppm DMSO stock solutions by pipetting. After drying, the plates were infested with L2 larvae (10 to 15 per well). The samples were assessed for mortality and growth inhibition in comparison to untreated samples 5 days after infestation.

[6] = test system: Spodoptera littoralis (Egyptian Cotton Leaf Worm); assay: Activity against Spodoptera littoralis (Egyptian cotton leaf worm), cotton leaf discs sprayed; type: in vivo; settings: for percent control (mortality, anti-feedant effect or growth inhibition) at 200 ppm: foliar, 72 h, application rate 200 ppm, L1 larvae, 3 days after infestation, read-out: control (mortality, anti-feeding effect or growth inhibition)
Method: Cotton leaf discs were placed onto agar in 24-well microtiter plates and sprayed with aqueous test solutions prepared from 10′000 ppm DMSO stock solutions. After drying the leaf discs were infested with five L1 larvae. The samples were assessed for mortality, anti-feeding effect, and growth inhibition in comparison to untreated samples 3 days after infestation. Control of Spodoptera littoralis by a test sample is given when at least one of the categories mortality, anti-feedant effect, and growth inhibition is higher than the untreated sample.

[7] = test system: Bemisia tabaci (Cotton White Fly); assay: Activity against Bemisia tabaci (cotton white fly); type: in vivo; settings: 144 h, application rate 200 ppm, adult white flies, 6 days after incubation
Method: Cotton leaf discs were placed on agar in 24-well microtiter plates and sprayed with aqueous test solutions prepared from 10′000 ppm DMSO stock solutions. After drying the leaf discs were infested with adult white flies. The samples were checked for mortality 6 days after incubation.

[8] = test system: Franklinella occidentalis (Western Flower Thrips); assay: Activity against Franklinella occidentalis (western flower thrips); type: in vivo; settings: Frankliniella occidentalis, 168 h; application rate 200 ppm; mixed ages; 7 days after infestation
Method: Sunflower leaf discs were placed on agar in 24-well microtiter plates and sprayed with aqueous test solutions prepared from […] stock solutions. After drying the leaf discs were infested with a Frankliniella population of mixed ages. The samples were assessed for mortality 7 days after infestation.

[9] = test system: Tetranychus urticae (Two-Spotted Spider Mite); assay: Activity against Tetranychus urticae (two-spotted spider mite); type: in vivo; settings: 192 h, application rate 200 ppm, mixed population (mobile stages), 8 days after infestation
Method: Bean leaf discs on agar in 24-well microtiter plates were sprayed with aqueous test solutions prepared from 10′000 ppm DMSO stock solutions. After drying the leaf discs were infested with a mite population of mixed ages. The samples were assessed for mortality on mixed population (mobile stages) 8 days after infestation.

[10] = test system: Spodoptera littoralis (Egyptian Cotton Leaf Worm); assay: Activity against Spodoptera littoralis (Egyptian cotton leaf worm), uptake via lettuce roots from agar; type: in vivo; settings: 144 h, test rate 12.5 ppm, 6 days after infestation, read-out: effect in at least one of the three categories (mortality, anti-feeding, or growth inhibition)
Text: Test compounds were applied by pipette from 10′000 ppm DMSO stock solutions into 24-well plates and mixed with agar. Lettuce seeds were placed onto the agar and the multi well plate was closed by another plate which contained also agar. After 7 days the compound was absorbed by the roots and the lettuce grew into the lid plate. The lettuce leaves were then cut off into the lid plate. Spodoptera eggs were pipetted through a plastic stencil onto a humid gel blotting paper and the lid plate was closed with it. The samples were assessed for mortality, anti-feedant effect and growth inhibition in comparison to untreated samples 6 days after infestation.

[11] = concentration 12.5 ppm, listed as drawing 143

| SMILES | percent effect (mortality or growth inhibition) at 200 ppm [1] | percent effect (mortality or growth inhibition) at 200 ppm [2] | mortality at 200 ppm [3] | mortality at 24 ppm [4] | percent effect (mortality or growth inhibition) at 200 ppm [5] | percent control (mortality, anti-feedant effect or growth inhibition) at 200 ppm [6] | mortality at 200 ppm [7] | mortality at 200 ppm [8] | mortality at 200 ppm [9] | Mortality (%) ([1]; concentration 50 ppm, listed as drawing 143) | Mortality (%) ([3]; Myzus persicae (feeding/contact), concentration 50 ppm, listed as drawing 143) | Mortality (%) ([4]; Myzus persicae (systemic), concentration 1.5 ppm, listed as drawing 143) | Mortality (%) [5, 11] | Mortality (%) [6, 11] | percent effect (mortality, anti-feeding or growth inhibition) at 12.5 ppm [10] | melting point |
| --- | --- | --- | --- | --- | --- | --- | --- | --- | --- | --- | --- | --- | --- | --- | --- | --- |
| CCS(=O)(=O)c1cc(C(C)(C)C#N)cnc1-c1nc2cc(C(F)(F)F)n(OC)c(=O)c2n1C [Compound A12, 2-[5-ethylsulfonyl-6-[5-methoxy-3-methyl-4-oxo-6-(trifluoromethyl)imidazo[4,5-c]pyridin-2-yl]-3-pyridyl]-2-methyl-propanenitrile] | ≥ 80% | ≥ 80% | ≥ 80% | ≥ 80% | ≥ 80% | ≥ 80% | ≥ 80% | ≥ 80% |  |  |  |  |  |  |  |  |
| CCS(=O)(=O)c1cc(C2(C#N)CC2)ccc1-c1nc2cc(C(F)(F)F)n(OC)c(=O)c2n1C [Compound A9, 1-[3-ethylsulfonyl-4-[5-methoxy-3-methyl-4-oxo-6-(trifluoromethyl)imidazo[4,5-c]pyridin-2-yl)phenyl]cyclopropanecarbonitrile] | ≥ 80% | ≥ 80% | ≥ 80% | ≥ 80% | ≥ 80% | ≥ 80% | ≥ 80% |  | ≥ 80% |  |  |  |  |  |  |  |
| CCS(=O)(=O)c1cc(C2(C#N)CC2)cnc1-c1nc2cc(C(F)(F)F)n(OC)c(=O)c2n1C [Compound A8, 1-[5-ethylsulfonyl-6-[5-methoxy-3-methyl-4-oxo-6-(trifluoromethyl)imidazo[4,5-c]pyridin-2-yl]-3-pyridyl]cyclopropanecarbonitrile] | ≥ 80% | ≥ 80% | ≥ 80% | ≥ 80% | ≥ 80% | ≥ 80% | ≥ 80% |  | ≥ 80% |  |  |  |  |  |  |  |
| CCS(=O)(=O)c1ccc(-n2cncn2)nc1-c1nc2cc(C(F)(F)F)n(OC)c(=O)c2n1C [Compound A3, 2-[3-ethylsulfonyl-6-(1,2,4-triazol-1-yl)-2-pyridyl]-5-methoxy-3-methyl-6-(trifluoromethyl)imidazo[4,5-c]pyridin-4-one] | ≥ 80% | ≥ 80% | ≥ 80% | ≥ 80% | ≥ 80% | ≥ 80% | ≥ 80% |  | ≥ 80% |  |  |  |  |  |  |  |
| CCS(=O)(=O)c1cccnc1-c1nc2cc(C(F)(F)F)n(OC)c(=O)c2n1C [Compound A2, 2-(3-ethylsulfonyl-2-pyridyl)-5-methoxy-3-methyl-6-(trifluoromethyl) imidazo[4,5-c]pyridin-4-one] | ≥ 80% | ≥ 80% | ≥ 80% | ≥ 80% | ≥ 80% | ≥ 80% |  |  |  | 100% | 100% | 80% | 80% | 80% | ≥ 80% |  |
| CCS(=O)(=O)c1ccc(Cl)nc1-c1nc2cc(C(F)(F)F)n(OC)c(=O)c2n1C [Compound A11, 2-(6-chloro-3-ethylsulfonyl-2-pyridyl)-5-methoxy-3-methyl-6-(trifluoromethyl)imidazo[4,5-c]pyridin-4-one] |  |  |  |  |  |  |  |  |  |  |  |  |  |  |  | 195 to 197 °C |
| CCS(=O)(=O)c1cc(Br)cnc1-c1nc2cc(C(F)(F)F)n(OC)c(=O)c2n1C [Compound A17, 2-(5-bromo-3-ethylsulfonyl-2-pyridyl)-5-methoxy-3-methyl-6-(trifluoromethyl)imidazo[4,5-c]pyridin-4-one] | ≥ 80% | ≥ 80% | ≥ 80% | ≥ 80% | ≥ 80% | ≥ 80% | ≥ 80% |  |  |  |  |  |  |  |  |  |
